Experimental data taken from US20180000085A1, “USE OF PICOLINAMIDE COMPOUNDS WITH FUNGICIDAL ACTIVITY” (DOW AGROSCIENCES LLC, priority 2014, published 2018).

What was measured:
Type in all cases: in vivo
Zymoseptoria tritici = assay: Leaf blotch of wheat (SEPTTR) disease control on wheat seedlings; settings: low volume application, 125.1 g/H; for SEPTTR 1DP, LV activity at 125.1 g/H (% Control rating): 1 Day Protectant; for SEPTTR 3DC, LV activity at 125.1 g/H (% Control rating): 3 Day Curative
Puccinia triticina = assay: Wheat brown rust (PUCCRT) disease control on wheat seedlings; settings: low volume application, 125.1 g/H; for PUCCRT 1DP, LV activity at 125.1 g/H (% Control rating): 1 Day Protectant; for PUCCRT 3DC, LV activity at 125.1 g/H (% Control rating): 3 Day Curative
Phakopsora pachyrhizi = assay: Asian soybean rust (PHAKPA) disease control; settings: 25 ppm; for PHAKPA disease control, 1DP: 1 Day Protectant; for PHAKPA disease control, 3DC: 3 Day Curative

Structure (SMILES)	SEPTTR 1DP, LV activity at 125.1 g/H (% Control rating) (Zymoseptoria tritici)	SEPTTR 3DC, LV activity at 125.1 g/H (% Control rating) (Zymoseptoria tritici)	PUCCRT 1DP, LV activity at 125.1 g/H (% Control rating) (Puccinia triticina)	PUCCRT 3DC, LV activity at 125.1 g/H (% Control rating) (Puccinia triticina)	PHAKPA disease control, 1DP (Phakopsora pachyrhizi)	PHAKPA disease control, 3DC (Phakopsora pachyrhizi)
COc1ccnc(C(=O)N[C@@H](C)C(=O)O[C@@H](C)[C@H](Oc2cccc(Cl)c2)C(C)C)c1OCOC(C)=O [Cmpd 561]	A (> 80)	A (> 80)	A (> 80)	A (> 80)	A (> 80)	A (> 80)
COc1ccnc(C(=O)N[C@@H](C)C(=O)O[C@@H](C)[C@H](Oc2ccc(Cl)cc2)C(C)C)c1OCOC(C)=O [Cmpd 563]	B (≤ 80)	A (> 80)	A (> 80)	A (> 80)	A (> 80)	B (≤ 80)
COc1ccnc(C(=O)N[C@@H](C)C(=O)O[C@@H](C)[C@H](Oc2ccc(Cl)cc2)C(C)C)c1OC(C)=O [Cmpd 568]	B (≤ 80)	A (> 80)	A (> 80)	A (> 80)	A (> 80)	B (≤ 80)
COc1ccnc(C(=O)N[C@H](C(=O)O[C@@H](C)[C@H](Oc2cccc(Cl)c2)C(C)C)C(C)C)c1OC(C)=O [Cmpd 569]	B (≤ 80)	A (> 80)	A (> 80)	A (> 80)	A (> 80)	B (≤ 80)
COc1ccnc(C(=O)N[C@@H](C)C(=O)O[C@@H](C)[C@H](Oc2cccc(F)c2)c2ccccc2)c1OC(C)=O [Cmpd 575]	A (> 80)	A (> 80)	A (> 80)	A (> 80)	A (> 80)	B (≤ 80)
CCC(CC)[C@@H](Oc1ccc(Cl)cc1)[C@H](C)OC(=O)[C@H](C)NC(=O)c1nccc(OC)c1OCOC(C)=O [Cmpd 589]	A (> 80)	A (> 80)	A (> 80)	A (> 80)	A (> 80)	B (≤ 80)
CCC(CC)[C@@H](Oc1cc(F)cc(Cl)c1)[C@H](C)OC(=O)[C@H](C)NC(=O)c1nccc(OC)c1OCOC(C)=O [Cmpd 592]	A (> 80)	A (> 80)	A (> 80)	A (> 80)	A (> 80)	A (> 80)
CCC(CC)[C@@H](Oc1ccccc1Cl)[C@H](C)OC(=O)[C@H](C)NC(=O)c1nccc(OC)c1OCOC(C)=O [Cmpd 593]	A (> 80)	A (> 80)	A (> 80)	A (> 80)	A (> 80)	B (≤ 80)
CCC(CC)[C@@H](Oc1cccc(F)c1)[C@H](C)OC(=O)[C@H](C)NC(=O)c1nccc(OC)c1OC(C)=O [Cmpd 597]	A (> 80)	A (> 80)	A (> 80)	A (> 80)	A (> 80)	B (≤ 80)
